Test results taken from US20210353590A1 (priority 2020, published 2021).
≈ marks a conversion by molar mass, not a printed value.

Legend:
Pharmacokinetic analysis = conditions: rat
Protocol: The photoperiod of 12 h was maintained. […] 120 male rats were randomly divided into 30 groups of 4 animals each corresponding to the time points of blood collection. […] Rats were fasted (Approximately 4 h) before administration of drug. On the other hand, AND at the dose of 10-mg/kg was administered intravenously (i.v.) for comparative studies. Plasma concentration data was analyzed and computed for pharmacokinetic parameters. The following pharmacokinetic parameters were assessed: ke (h), t½ (h), Cmax (μg/ml), AUClast (h.μg/ml), AUCinf (h.μg/ml), MRT (h), CLTotal (L/h), Vd (L) and F%.

[1] = after 2 h, simulated intestinal fluid pH 7.2, 37±2° C., 50 rpm, 100 mg AND or equivalent
Protocol: The temperature of SIF was maintained at 37±2° C. At specified time intervals, 2 ml of SIF was taken and replaced with identical volume. Subsequently, all the samples were filtered through 0.22 μm membrane filter and assayed for drug content at 225 nm.

[2] = Solubility analysis by saturated solution method; conditions: 37±1° C., 24 hrs, 100 rpm
Protocol: After that, suspension was filtered and 0.1 ml of the filtrate was diluted with water up to 1 ml. The contents in the aliquot were measured by HPLC method (Sajeeb BK, 2015). All measurements were carried out in triplicate (n=3).

C=C1CC[C@@H]2[C@](C)(CO)[C@H](O)CC[C@@]2(C)[C@@H]1C/C=C1/C(=O)OC[C@H]1O [Andrographolide]
AUC inf (Pharmacokinetic analysis; Oral, 100 mg/kg): 1845.58 ± 305.77 µg·h/mL | AUC last (Pharmacokinetic analysis; Oral, 100 mg/kg): 1223.6 ± 143.09 µg·h/mL | CLTotal (Pharmacokinetic analysis; Oral, 100 mg/kg): 0.055 ± 0.008 L/h | Cmax (Pharmacokinetic analysis; Oral, 100 mg/kg): 239.6 ± 75.37 µg/mL | Vd (Pharmacokinetic analysis; Oral, 100 mg/kg): 0.468 ± 0.060 L | t1/2 (Pharmacokinetic analysis; Oral, 100 mg/kg): 5.92 ± 0.21 h | tmax (Pharmacokinetic analysis; Oral, 100 mg/kg): 2 h | F (bioavailability) (Pharmacokinetic analysis; Oral, 100 mg/kg, versus AND i.v. 10 mg/kg): 15.87±3.84% | AUC inf (Pharmacokinetic analysis; i.v., 10 mg/kg): 891.08 ± 179.75 µg·h/mL | AUC last (Pharmacokinetic analysis; i.v., 10 mg/kg): 801.14 ± 181.07 µg·h/mL | CLTotal (Pharmacokinetic analysis; i.v., 10 mg/kg): 0.011 ± 0.002 L/h | MRT (Pharmacokinetic analysis; i.v., 10 mg/kg): 1.11 ± 0.04 h | Vd (Pharmacokinetic analysis; i.v., 10 mg/kg): 0.013 ± 0.003 L | t1/2 (Pharmacokinetic analysis; i.v., 10 mg/kg): 0.859 ± 0.031 h | MRT (Pharmacokinetic analysis; in vivo, po, 100 mg/kg): 1.49 ± 0.0.085 h | release [1]: 27.89±1.32% | solubility in aqueous phase [2]: 6.39 ± 0.47 µg/mL (≈ 18.2 µM)
